The term IC50 denotes the concentration that gives 50% inhibition.

The text below walks through data of ChEMBL document CHEMBL4665908, “Estrogen Receptor Degrading PROTACS for the Treatment of Breast Cancer” (ACS Med Chem Lett, 2020).

Protein cereblon/Estrogen receptor, sequence (Q96SW2 whole entry, one chain of several): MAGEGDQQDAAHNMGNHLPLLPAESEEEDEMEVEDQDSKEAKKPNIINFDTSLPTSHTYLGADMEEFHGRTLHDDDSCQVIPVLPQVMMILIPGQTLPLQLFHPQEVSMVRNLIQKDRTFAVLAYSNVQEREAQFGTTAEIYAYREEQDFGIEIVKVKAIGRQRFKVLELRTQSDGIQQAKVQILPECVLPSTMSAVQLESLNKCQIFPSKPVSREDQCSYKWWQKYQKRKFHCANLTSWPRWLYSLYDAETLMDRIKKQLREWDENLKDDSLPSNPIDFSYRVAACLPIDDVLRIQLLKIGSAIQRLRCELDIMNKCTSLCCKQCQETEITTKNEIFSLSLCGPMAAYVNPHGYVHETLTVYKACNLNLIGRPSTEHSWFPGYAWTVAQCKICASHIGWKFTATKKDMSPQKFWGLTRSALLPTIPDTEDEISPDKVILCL

The first assay addresses Protein cereblon/Estrogen receptor (Homo sapiens, UniProt P03372+Q96SW2). Nature of the assay: Protac activity at CRBN/ERalpha in human MCF7 cells assessed as induction of ERalpha protein degradation incubated for 8 to 22 hrs by immunofluorescence assay. Type of assay: cell-based.
As to `COc1cc(N2CCN(CCC3CCN(c4ncc([C@@H]5c6[nH]c7ccccc7c6C[C@@H](C)N5CC(C)(C)F)cn4)CC3)CC2)cc2c1C(=O)N(C1CCC(=O)NC1=O)C2` (stereo partly drawn), the IC50 was found to be 0.4 nM.

For the compound `C[C@@H]1Cc2c([nH]c3ccccc23)[C@@H](c2cnc(N3CCC4(CC3)CC(CN3CC5(CCN(c6ccc7c(c6)CN(C6CCC(=O)NC6=O)C7=O)CC5)C3)C4)nc2)N1CC(C)(C)F` (stereo partly drawn), the IC50 worked out at 0.4 nM. Consider `C[C@@H]1Cc2c([nH]c3ccccc23)[C@@H](c2cnc(N3CCC(CN4CCN(CC5CCN(c6ccc7c(c6)CN(C6CCC(=O)NC6=O)C7=O)CC5)CC4)CC3)nc2)N1CC(C)(C)F` (stereo partly drawn), for which the IC50 amounted to 0.6 nM. As to `C[C@@H]1Cc2c([nH]c3ccccc23)[C@@H](c2cnc(N3CCC4(CCN(CCC5CCN(c6ccc7c(c6)CN(C6CCC(=O)NC6=O)C7=O)CC5)CC4)CC3)nc2)N1CC(C)(C)F` (stereo partly drawn), the IC50 is 0.8 nM.

For the compound `C[C@@H]1Cc2c([nH]c3ccccc23)[C@@H](c2cnc(OC3CCC4(CC3)CCN(CC3CCN(c5ccc6c(c5)CN(C5CCC(=O)NC5=O)C6=O)CC3)CC4)nc2)N1CC(C)(C)F` (stereo partly drawn), the IC50 amounted to 0.4 nM.

Turning to `C[C@@H]1Cc2c([nH]c3ccccc23)[C@@H](c2cnc(N3CCC(CCN4CCC5(CC4)CCN(c4ccc6c(c4)CN(C4CCC(=O)NC4=O)C6=O)CC5)CC3)nc2)N1CC(C)(C)F` (stereo partly drawn), the IC50 came out at 0.4 nM. As to `C[C@@H]1Cc2c([nH]c3ccccc23)[C@@H](c2cnc(N3CCC(CCN4CCN(c5ccc6c(c5)CN(C5CCC(=O)NC5=O)C6=O)CC4)CC3)nc2)N1CC(C)(C)F` (stereo partly drawn), the IC50 turned out to be 0.5 nM. Turning to `C[C@@H]1Cc2c([nH]c3ccccc23)[C@@H](c2cnc(N3CCC(OCCN4CCN(c5ccc6c(c5)CN(C5CCC(=O)NC5=O)C6=O)CC4)CC3)nc2)N1CC(C)(C)F` (stereo partly drawn), the IC50 turned out to be 0.5 nM. Same read-out and setting: next, `COc1cc(N2CCN(CC3CCN(c4ncc([C@@H]5c6[nH]c7ccccc7c6C[C@@H](C)N5CC(C)(C)F)cn4)CC3)CC2)cc2c1C(=O)N(C1CCC(=O)NC1=O)C2` (stereo partly drawn): 0.7 nM; `C[C@@H]1Cc2c([nH]c3ccccc23)[C@@H](c2c(F)cc(OCCCCCN3CCN(c4ccc5c(c4)CN(C4CCC(=O)NC4=O)C5=O)CC3)cc2F)N1CC(C)(C)F` (stereo partly drawn): 0.6 nM. For `C[C@@H]1Cc2c([nH]c3ccccc23)[C@@H](c2cnc(N3CCC(CCN4CCOC5(CC4)CCN(c4ccc6c(c4)CN(C4CCC(=O)NC4=O)C6=O)CC5)CC3)nc2)N1CC(C)(C)F` (stereo partly drawn), the IC50 was determined as 0.5 nM. Regarding `C[C@@H]1Cc2c([nH]c3ccccc23)[C@@H](c2cnc(N3CCC(CN4CCOC5(CC4)CCN(c4ccc6c(c4)CN(C4CCC(=O)NC4=O)C6=O)CC5)CC3)nc2)N1CC(C)(C)F` (stereo partly drawn), the half-inhibitory concentration (IC50) came to 0.4 nM.

The next assay addresses T1, Estrogen receptor (Homo sapiens, UniProt P03372).
T1 sequence (P03372 whole entry): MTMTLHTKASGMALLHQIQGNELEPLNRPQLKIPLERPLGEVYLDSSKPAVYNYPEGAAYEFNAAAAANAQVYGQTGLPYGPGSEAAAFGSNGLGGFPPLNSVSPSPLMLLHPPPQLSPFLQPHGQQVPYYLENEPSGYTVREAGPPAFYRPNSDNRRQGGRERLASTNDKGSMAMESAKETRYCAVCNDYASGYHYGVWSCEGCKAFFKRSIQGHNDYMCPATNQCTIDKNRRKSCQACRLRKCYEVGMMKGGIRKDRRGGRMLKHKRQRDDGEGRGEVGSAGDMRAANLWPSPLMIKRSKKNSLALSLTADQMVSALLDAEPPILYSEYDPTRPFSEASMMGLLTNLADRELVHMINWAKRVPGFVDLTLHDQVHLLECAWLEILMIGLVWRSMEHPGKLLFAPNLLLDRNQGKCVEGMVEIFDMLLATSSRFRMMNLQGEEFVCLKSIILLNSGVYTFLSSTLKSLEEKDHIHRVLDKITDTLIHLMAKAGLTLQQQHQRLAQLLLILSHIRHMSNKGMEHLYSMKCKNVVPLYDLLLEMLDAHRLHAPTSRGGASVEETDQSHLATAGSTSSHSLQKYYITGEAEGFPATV
Nature of the assay: Displacement of fluorescent ligand from human recombinant GST-tagged ER-alpha ligand binding domain (307 to 554 residues) incubated for 15 mins by TR-FRET based competitive assay.
Turning to `C[C@@H]1Cc2c([nH]c3ccccc23)[C@@H](c2cnc(N3CCC4(CC3)CC(CN3CC5(CCN(c6ccc7c(c6)CN(C6CCC(=O)NC6=O)C7=O)CC5)C3)C4)nc2)N1CC(C)(C)F` (stereo partly drawn), the half-maximal inhibitory concentration (IC50) was found to be 1.9 nM.
